Columns and labels:
Klebsiella pneumoniae = experiment: Anti-infection activity with respect to Klebsiella (mouse survival); assay type: in vivo; conditions: for anti-infectious activity: higher percentage of survivors than control group
Excerpt: The testing procedure is described in the article CHEDID L. et col., Proc. Natl. Acad. Sci. USA 1977, 74: 2089.
It was shown that a dose of 1 to 2.10^4 Klebsiella pneumoniae, injected by the intramuscular route to mice, results in the progressive death of a considerable part, if not of the whole, of the animals in the week following inoculation. After eight days, the survival of the remaining animals is finally achieved.
The survival of groups of mice inoculated under the above-indicated conditions and treated by means of the products according to the invention, was followed.
For these tests, hybrid mice (C571B1/6×AKR)F1 raised at the INSTITUT PASTEUR were used, there mice being raised from strains coming from the C.N.R.S. breeding station at ORLEANS.
Infection by Klebsiella pneumoniae, capsular type 2, biotype d, strain was effected with a 16 hour culture in medium for pneumococci (No. 53515, INSTITUT PASTEUR) was effected. The infecting dose was 2.10^4 Klebsiella; it was administered by the intramuscular route.
The administration of the tested product is effected by the intravenous route in 0.2 ml of apyrogenic physiological solution, the controls receiving the solution alone. It is carried out 24 hours before the inoculation.

[1] = Pyrogenicity: maximum temperature variation in rabbits during three hours after administration; assay type: in vivo, rabbit; conditions: three hours following administration
Description: In the course of tests on rabbits, the maximum temperature variations during the three hours following administration were followed. For doses as high as 5 mg/kg or more of product, no significant variation in temperature is observed. Thus the average rise in temperature for administration to rabbits, for different esters of Mur-NAc-L-Ala-D-Gln is: […]

[2] = in vivo; cited from earlier work
[3] = cited from earlier work
total blood = experiment: Influence on coagulation mechanisms: recalcification coagulation time after incubation with total blood; assay type: cell-based, rabbit; conditions: for coagulation time: 100 μg per 1 ml total blood; for effect on coagulation: contrary to LPS
Excerpt: It is known, from recent studies, that compounds having adjuvant properties like LPS can have side effects. Thus it has been observed in the rabbits that the administration of LPS has a tendency to shorten the coagulation time. The reasons for this phenomena are not fully known; nonetheless, it has seemed useful to determine the effect of the products according to the invention on coagulation under the same conditions.
For these tests, the test described by LERNER et col. in Thrombosis Research, Vol. 11, pp. 253-261, 1977, "Endotoxin induced disseminated intravascular clotting: evidence that it is mediated by neutrophile production of tissue factor", was used.
The total blood was divided into two portions of which one was centrifuged to obtain platelet-free plasma (PFP).
1 ml of total blood was incubated in a plastic tube in the presence of 100 μg of the product to be tested.
Tubes were also prepared containing 0.1 ml of PFP to which every hour, from 0 to 5 hours, were added 0.1 ml of incubation mixture, then these were recalcified by 0.1 ml of 0.025M calcium chloride.
The coagulation time was noted and the pro-coagulating activity was deduced therefrom as a function of the shortening of the coagulation time with respect to the control, physiological water. The result was compared with that of a highly pro-coagulant reference standard, the LPS.
The coagulation times are expressed in seconds.

[4] = tested on: bovine serum albumin (BSA) antibodies; experiment: Adjuvant character in the aqueous phase: anti-albumin antibodies by passive hemagglutination; assay type: in vivo, Swiss mice; conditions: for Antibody Titer Secondary Response / Antibody Titer Primary Response: Swiss mice, 100 μg s.c. with 0.5 mg BSA in isotonic saline; for Antibody Titer Secondary Response: after booster 0.1 mg BSA at 30 days; for Antibody Titer Primary Response: maximum serum dilution agglutinating; for level of antibodies formed: administered in isotonic saline solution
Description: In this series of trials of which the results are indicated below, the influence of the active principle according to the invention on the level of anti-albumin antibodies under the following conditions, were studied.
Groups of 8 Swiss mice aged two months received, by sub-cutaneous injection, 0.5 mg of antigen constituted by bovine serum albumin (BSA) with or without the tested substance in isotonic saline solution. This high dose of antigen, because it is situated at the limit of the paralysing dose with respect to the immune response, results for this reason, in a weak or nil response to the antigen alone in the controls; it therefore constitutes a severe criterion for establishing the activity of an adjuvant substance. Thirty days later, the mice received, by the same route of administration, a booster containing 0.1 mg of the same antigen.
By way of comparison, the adjuvant effect was studied simultaneously of 2-(2-acetamido-2-deoxy-3-O-D-glucopyranosyl)-D-propionyl-L-alanyl-D-isoglutamine (MDP) known for its adjuvant properties.
The antibody level is determined by passive hemagglutination using sheep's red blood cells treated with formalin and covered with the antigen studied according to the method described by A. A. HIRATA and M. W. BRANDISS (J. Immunol., 100, 641-648, 1968). Samples were taken respectively after the first injection of antigen and after injection of the booster to determine the primary and secondary responses.
The antibody titers express the maximum serum dilution agglutinating a given amount of sheep's red blood cells.

[5] = tested on: ovalbumin specific antibodies / delayed hypersensitivity; experiment: Adjuvant character in the presence of an oily phase (FIA): ovalbumin antibodies and delayed hypersensitivity; assay type: in vivo, Hartley guinea pigs; conditions: for delayed hypersensitivity reaction / level of antibodies formed: administered in an oily emulsion; for Serum Antibodies / Cutaneous test (diameter in mm): guinea pigs; for Serum Antibodies: 0.1 mg in FIA emulsion with 1 mg ovalbumin, intradermal, day 21, nitrogen precipitatable by the antigen; for Cutaneous test (diameter in mm): 0.1 mg in FIA emulsion, 0.01 mg ovalbumin intradermal at day 18, read 48 hours later
Description: In these tests, the growth of the specific antibody level of a given antigen is followed when the latter is injected, with or without the adjuvant compound according to the invention, in a water in oil emulsion.
The tests were carried out on batches of 6 female Hartley guinea pigs of 350 g. The administration was done by intradermal injection into the plantar pad of each of the rear paws. The ovalbumin (constituting the antigen) at the dose of 1 mg is prepared in 0.1 ml of a saline isotonic solution emulsion, in an oily phase constituted by the Freund incomplete adjuvant (FIA). The compound according to the invention is administered at the dose of 0.1 mg added in the emulsion containing the FIA.
As previously, by way of comparison, a test was carried out with MDP in place of the product according to the invention.
Eighteen days after this immunization, possible reactions are sought of delayed hypersensitivity to the antigen by injecting by the intradermal route 0.01 mg of ovalbumin into the side of the animals, and there was observed, 48 hours later, the reaction at the point of injection. The diameter in millimeters of the reaction thus-caused was measured.
Twenty-one days after the injection, the animals were bled. In the serum collected, the content is measured of specific antibodies of ovalbumin by precipitation of the antibody-antigen complex in the equivalence zone. The amount of protein nitrogen contained in this precipitate was estimated by the method of Folin. These values express the amount, in micrograms, of nitrogen precipitatable by the antigen, per […] of serum.

Row | Molecule | anti-infectious activity (Klebsiella pneumoniae) | average rise in temperature ([1]; at 10 mg/kg) [°C] | coagulation time (total blood; incubation 0 h) [s] | coagulation time (total blood; incubation 2 h) [s] | coagulation time (total blood; incubation 3 h) [s] | coagulation time (total blood; incubation 4 h) [s] | coagulation time (total blood; incubation 5 h) [s] | effect on coagulation (total blood) | Antibody Titer Secondary Response [4] | Antibody Titer Primary Response [4] | level of antibodies formed [4] | delayed hypersensitivity reaction [5] | level of antibodies formed [5] | Serum Antibodies [5] | Cutaneous test (diameter in mm) [5] [mm] | also measured
1 | CCCCCCCCCCOC(=O)C(CCC(N)=O)NC(=O)C(C)NC(=O)C(C)OC1C(O)C(CO)OC(O)C1NC(C)=O [decyl ester, n-decyl ester of N-acetyl-muramyl-L-alanyl-D-glutamine] | anti-infectious activity | 0.23 | – | – | – | – | – | – | – | – | – | – | – | – | – | –
2 | CC(=O)N[C@H]1C(O)O[C@H](CO)[C@@H](O)[C@@H]1O[C@H](C)C(=O)N[C@@H](C)C(=O)N[C@H](CCC(N)=O)C(N)=O (stereo partly drawn) [diamide of N-acetyl-muramyl-L-alanyl-D-glutamic acid] | – | – | – | – | – | – | – | – | – | – | – | – | – | – | – | pyrogenicity [2]: very low level of pyrogenicity; adjuvant activity compared with N-acetyl-muramyl-L-alanyl-D-isoglutamine ([3]; in vivo): less active
3 | n-butyl ester of N-acetyl-muramyl-L-alanyl-D-glutamine [Mur--NAc--L-Ala--D-Glu(NH2)--OC4 H9] | anti-infectious activity | 0.30 | 129 | 120 | 122 | 114 | 108 | do not accelerate coagulation | 600 ± 200 | 12 | considerable increase in the level of antibodies formed | induces a delayed hypersensitivity reaction | very considerable increase in the level of antibodies formed | 2,000 μg/ml | 8 | % Protection (Klebsiella pneumoniae; mice, 2.10^4 Klebsiella i.m., product i.v. 24 hours before inoculation): 63%; % Survival D3 (Klebsiella pneumoniae; mice, 2.10^4 Klebsiella i.m., product i.v. 24 hours before inoculation, day 3): 92%; % Survival D5 (Klebsiella pneumoniae; mice, 2.10^4 Klebsiella i.m., product i.v. 24 hours before inoculation, day 5): 75%; % Survival D10 (Klebsiella pneumoniae; mice, 2.10^4 Klebsiella i.m., product i.v. 24 hours before inoculation, day 10): 75%
4 | COC(=O)[C@@H](CCC(N)=O)NC(=O)[C@H](C)NC(=O)[C@@H](C)O[C@H]1[C@H](O)[C@@H](CO)OC(O)[C@@H]1NC(C)=O (stereo partly drawn) [Mur--NAc--L-Ala--D-Glu(NH2)--OCH3, Methyl ester of N-acetyl-muramyl-L-alanyl-D-glutamine] | – | – | 125 | 118 | 109 | 110 | 104 | do not accelerate coagulation | 500 ± 150 | 100 | considerable increase in the level of antibodies formed | induces a delayed hypersensitivity reaction | very considerable increase in the level of antibodies formed | 6,000 μg/ml | 17 | average rise in temperature ([1]; at 5 mg/kg): 0.53 °C
5 | CC(=O)N[C@@H]1[C@@H](O[C@H](C)C(=O)N[C@@H](C)C(=O)N[C@H](CCC(=O)O)C(N)=O)[C@H](O)[C@@H](CO)O[C@H]1O [MDP, 2-(2-acetamido-2-deoxy-3-O-D-glucopyranosyl)-D-propionyl-L-alanyl-D-isoglutamine, reference compound] | – | – | – | – | – | – | – | – | 300 ± 100 | 50 | – | – | – | 5,000 μg/ml | 15 | –
6 | COC(=O)CC[C@@H](NC(=O)[C@H](C)NC(=O)C(C)O[C@H]1[C@H](O)[C@@H](CO)O[C@H](O)[C@@H]1NC(C)=O)C(=O)OC (stereo partly drawn) [dimethyl ester of N-acetyl-muramyl-L-alanyl-D-glutamic acid] | – | – | – | – | – | – | – | – | – | – | – | – | – | – | – | adjuvant activity in oil compared with γ-methylester of N-acetyl-muramyl-L-alanyl-D-isoglutamine ([3]; in oil, ADAM et coll. 1976): lesser adjuvant activity in oil
